This assay relates to P388 leukemia ip, CD2F1 mice, survival T/C. Kind of assay: NCI In Vivo Anticancer Drug Screen. Data for tumor model P388 Leukemia (intraperitoneal) in CD2F1 (CDF1) mice. The conditions noted are these: endpoint: median survival time, higher = longer survival. The procedure, abridged:
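Mice carrying the transplanted tumor received test compound or vehicle. Survival was recorded in each group, and the value is the treated-group measurement divided by that of the vehicle-treated control group.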

Where [1] appears, read: dose: 100.0 mg/kg/injection, schedule: Q04DX002 (ip), vehicle: saline.
[2] abbreviates: dose: 200.0 mg/kg/injection, schedule: Q04DX002 (ip), vehicle: saline.
Setting [3] is: dose: 25.0 mg/kg/injection, schedule: Q01DX009 (ip), vehicle: other.
Setting [4] is: dose: 100.0 mg/kg/injection, schedule: Q01DX009 (ip), vehicle: other.
Where [5] appears, read: dose: 200.0 mg/kg/injection, schedule: Q01DX009 (ip), vehicle: other.
The mark [6] stands for this setting: dose: 60.0 mg/kg/injection, schedule: Q01DX005 (ip), vehicle: saline.
Setting [7] is: dose: 120.0 mg/kg/injection, schedule: Q01DX005 (ip), vehicle: saline.
[8] abbreviates: dose: 50.0 mg/kg/injection, schedule: Q01DX009 (ip), vehicle: saline with Tween-80.
Setting [9] is: dose: 100.0 mg/kg/injection, schedule: Q01DX009 (ip), vehicle: saline with Tween-80.
The mark [10] stands for this setting: dose: 200.0 mg/kg/injection, schedule: Q01DX009 (ip), vehicle: saline with Tween-80.

SMILES strings stand for the structures. Where “and” joins values, the source holds several entries; their conditions need not be identical. Equal entries are not always repeated. Inconclusive results and toxic doses are left out.

As to `Cc1ccc(S(=O)(=O)ONNc2nccc3ccccc23)cc1`, the T/C is, setting by setting: under setting [1], 103 % of control; under setting [2], 96 % of control; (dose: 400.0 mg/kg/injection, schedule: Q04DX002 (ip), vehicle: saline) 97 % of control.

In the case of `Cc1ccc(N=C(N)NN=C(c2ccc(Cl)cc2)c2ccc(Cl)cc2)cc1`, the T/C reads like this: (dose: 25.0 mg/kg/injection, schedule: Q04DX002 (ip), vehicle: saline with Tween-80) 98 % of control and 103 % of control and 107 % of control; (dose: 50.0 mg/kg/injection, schedule: Q04DX002 (ip), vehicle: saline with Tween-80) 100 % of control and 106 % of control and 108 % of control; (dose: 100.0 mg/kg/injection, schedule: Q04DX002 (ip), vehicle: saline with Tween-80) 107 % of control (2×) and 109 % of control; (dose: 200.0 mg/kg/injection, schedule: Q04DX002 (ip), vehicle: saline with Tween-80) 105 % of control and 118 % of control and 120 % of control.

Regarding `CCC1(O)C[C@@]2(CCCCC2I)OC1=O` (stereo not given in full), the T/C by setting is: (dose: 50.0 mg/kg/injection, schedule: Q01DX005 (ip), vehicle: saline with Tween-80) 100 % of control; (dose: 100.0 mg/kg/injection, schedule: Q01DX005 (ip), vehicle: saline with Tween-80) 103 % of control; (dose: 200.0 mg/kg/injection, schedule: Q01DX005 (ip), vehicle: saline with Tween-80) 106 % of control.

On to `O=C=Nc1ccc(N=Nc2ccccc2)cc1`, for which the T/C by setting is: (dose: 12.5 mg/kg/injection, schedule: Q04DX003 (ip), vehicle: saline with Tween-80) 97 % of control; (dose: 25.0 mg/kg/injection, schedule: Q04DX003 (ip), vehicle: saline with Tween-80) 90 % of control; (dose: 50.0 mg/kg/injection, schedule: Q04DX003 (ip), vehicle: saline with Tween-80) 90 % of control; (dose: 100.0 mg/kg/injection, schedule: Q04DX003 (ip), vehicle: saline with Tween-80) 90 % of control and 92 % of control; (dose: 150.0 mg/kg/injection, schedule: Q04DX003 (ip), vehicle: saline with Tween-80) 92 % of control; (dose: 225.0 mg/kg/injection, schedule: Q04DX003 (ip), vehicle: saline with Tween-80) 100 % of control. Further, for the setting “dose: 335.0 mg/kg/injection, schedule: Q04DX003 (ip), vehicle: saline with Tween-80”, the T/C was 93 % of control.

With `CCOC(=O)CC1(C)OCCO1`, the T/C is 98 % of control (dose: 50.0 mg/kg/injection, schedule: Q01DX009 (ip), vehicle: saline); 99 % of control (dose: 100.0 mg/kg/injection, schedule: Q01DX009 (ip), vehicle: saline); 99 % of control (dose: 200.0 mg/kg/injection, schedule: Q01DX009 (ip), vehicle: saline); 101 % of control (dose: 400.0 mg/kg/injection, schedule: Q01DX009 (ip), vehicle: saline).

On to `O=c1c2cc3c(cc2c2cc([N+](=O)[O-])cc4c2n1CC4)OCO3`, for which the T/C runs as follows: under setting [3], 98 % of control; (dose: 50.0 mg/kg/injection, schedule: Q01DX009 (ip), vehicle: other) 92 % of control; under setting [4], 90 % of control; under setting [5], 100 % of control; (dose: 400.0 mg/kg/injection, schedule: Q01DX009 (ip), vehicle: other) 104 % of control.

Take `N#CC(C#N)=C(O)/C(=C/c1ccccc1[N+](=O)[O-])NC(=O)c1ccccc1`: the T/C reads like this: (dose: 60.0 mg/kg/injection, schedule: Q01DX005 (ip), vehicle: saline with Tween-80) 106 % of control; (dose: 120.0 mg/kg/injection, schedule: Q01DX005 (ip), vehicle: saline with Tween-80) 104 % of control; (dose: 240.0 mg/kg/injection, schedule: Q01DX005 (ip), vehicle: saline with Tween-80) 92 % of control.

Take `CC(N)C(=O)NC(C(=O)NC1C(O)OC(CO)C(O)C1O)C(C)C` (stereo not given): the T/C by setting is: under setting [6], 99 % of control; under setting [7], 104 % of control; (dose: 240.0 mg/kg/injection, schedule: Q01DX005 (ip), vehicle: saline) 97 % of control.

As to `O=C1CC(=O)NP(=O)(Oc2ccccc2)N1`, the T/C is 103 % of control under setting [1] and 100 % of control under setting [2].

Turning to `COc1cccc2c1C(=O)c1c(O)c3c(c(O)c1C2=O)C[C@@](O)(C(=O)CO)C[C@@H]3OC1CC(N)C(OC)C(C)O1` (stereo not given in full), the T/C was 201 % of control (dose: 0.39 mg/kg/injection, schedule: Q01DX009 (ip), vehicle: saline); 201 % of control (dose: 0.65 mg/kg/injection, schedule: Q01DX009 (ip), vehicle: saline); 324 % of control (dose: 1.08 mg/kg/injection, schedule: Q01DX009 (ip), vehicle: saline); 190 % of control (dose: 1.08 mg/kg/injection, schedule: Q04DX003 (ip), vehicle: saline); 263 % of control (dose: 1.8 mg/kg/injection, schedule: Q04DX003 (ip), vehicle: saline); 257 % of control (dose: 3.0 mg/kg/injection, schedule: Q04DX003 (ip), vehicle: saline). Moreover, the T/C runs as follows: (dose: 3.13 mg/kg/injection, schedule: Q04DX003 (ip), vehicle: water) 172 % of control; (dose: 5.0 mg/kg/injection, schedule: Q04DX003 (ip), vehicle: saline) 163 % of control and 172 % of control; (dose: 12.5 mg/kg/injection, schedule: Q04DX003 (ip), vehicle: water) 90 % of control.

For the compound `CC(C)(C)c1cc(-c2cc(C(C)(C)C)nc(N)n2)nc(N)n1`, the T/C is, setting by setting: under setting [6], 87 % of control; under setting [7], 105 % of control.

As for `CC(=O)OC1OC(COS(=O)(=O)c2ccc(C)cc2)C(OC(C)=O)C(OC(C)=O)C1OC(C)=O` (stereo not given), the T/C is, setting by setting: (dose: 12.5 mg/kg/injection, schedule: Q01DX009 (ip), vehicle: other) 93 % of control; under setting [3], 90 % of control; under setting [4], 87 % of control; under setting [5], 92 % of control.

On to `O=C(O)c1cccc2c1Cc1ccccc1-2`, for which the T/C runs as follows: (dose: 50.0 mg/kg/injection, schedule: Q01DX005 (ip), vehicle: Klucel (hydroxypropylcellulose) (HPC)) 94 % of control; (dose: 100.0 mg/kg/injection, schedule: Q01DX005 (ip), vehicle: Klucel (hydroxypropylcellulose) (HPC)) 92 % of control; (dose: 200.0 mg/kg/injection, schedule: Q01DX005 (ip), vehicle: Klucel (hydroxypropylcellulose) (HPC)) 88 % of control.

Turning to `Cc1c(CCNC=O)cc(C)c2c3c(oc12)CCCC3`, the T/C by setting is: under setting [8], 91 % of control; under setting [9], 91 % of control; under setting [10], 94 % of control; (dose: 400.0 mg/kg/injection, schedule: Q01DX009 (ip), vehicle: saline with Tween-80) 91 % of control.

Consider `O=C1C=CCCCC1`, for which the T/C by setting is: (dose: 12.5 mg/kg/injection, schedule: Q01DX009 (ip), vehicle: saline + Tween-80 + alcohol) 102 % of control; (dose: 25.0 mg/kg/injection, schedule: Q01DX009 (ip), vehicle: saline + Tween-80 + alcohol) 98 % of control; (dose: 44.0 mg/kg/injection, schedule: Q01DX009 (ip), vehicle: saline with Tween-80) 109 % of control; (dose: 50.0 mg/kg/injection, schedule: Q01DX009 (ip), vehicle: saline + Tween-80 + alcohol) 100 % of control; (dose: 66.0 mg/kg/injection, schedule: Q01DX009 (ip), vehicle: saline with Tween-80) 109 % of control.

Consider `Cc1ccc2c(c1)C=CC(C#N)N2C(=O)Oc1ccccc1` (stereo not given), for which the T/C (dose: 6.25 mg/kg/injection, schedule: Q01DX009 (ip), vehicle: saline) is 99 % of control and 101 % of control; the T/C (dose: 12.5 mg/kg/injection, schedule: Q01DX009 (ip), vehicle: saline) was 98 % of control; the T/C (dose: 25.0 mg/kg/injection, schedule: Q01DX009 (ip), vehicle: saline) is 93 % of control and 96 % of control.

As to `CCOC1OCN(CCCN(C)C)CC1(C)C` (stereo not given), the T/C under setting [8] was 108 % of control, the T/C under setting [9] was 123 % of control and the T/C under setting [10] was 123 % of control.

`O=c1[nH]nc2c3cccc4cccc(c5ccc(O)c1c52)c43`: the T/C is 103 % of control (dose: 60.0 mg/kg/injection, schedule: Q01DX005 (ip), vehicle: Klucel (hydroxypropylcellulose) (HPC)); 97 % of control (dose: 120.0 mg/kg/injection, schedule: Q01DX005 (ip), vehicle: Klucel (hydroxypropylcellulose) (HPC)); 97 % of control (dose: 240.0 mg/kg/injection, schedule: Q01DX005 (ip), vehicle: Klucel (hydroxypropylcellulose) (HPC)).

The values are drawn from PubChem BioAssay AID330 (DTP/NCI, 2004).
